Measured values as given in patent publication US8980951B2, “Sesquiterpenes for antifungal applications” (Kansas State University Research Foundation, priority 2011, dated 2015).
In brackets after ≈: the same amount, converted by molar mass.

Tests used:
[1] = tested on: fluconazole resistant C. alibcans, Cryptococcus sp. and Aspergillus sp.; test: MIC summary for fungi; assay type: cell-based; settings: Candida albicans, read-out: minimum inhibitory concentration (MIC)
Procedure: (§1) Synthetic pure albicanol and drimenol were dissolved in DMSO (10 mg/ml as stock solution) and used to determine their antifungal activities (minimum inhibitory concentration, MIC) against various fungi according to the microdilution assay of Clinical and Laboratory Standards Institute (CLSI (2008). Reference method for broth dilution antifungal susceptibility testing of yeasts and filamentous fungi: Approved Standard-Third Edition. Clinical and Laboratory Standards Institute 940 West Valley Road, Wayne, Pa. CLSI document M27-A3 & M38-A28. An initial assay had confirmed the antifungal activity of albicanol and drimenol; therefore, the susceptibility assay was extended to other pathogenic fungi including fluconazole resistant C. albicans, various species of candida, Cryptococcus, Aspergillus and a dermatophyte fungus.
(§2) Yeast cells or conidia (for filamentous fungi) were suspended in RPMI 1640 (with 50 mM glucose) medium to a final concentration of 10^4 cfu/ml and distributed in a 96-well microplate to a total volume of 100 μl/well. […] The MIC was defined as the lowest compound concentration at which no growth occurred, as determined visually and by OD600 measurement (or microscopically, inverted). […] Cytotoxicity of albicanol and drimenol was determined using human intestinal epithelial cell lines (Int-407) by utilizing cell viability assay kit of Promega.

C. albicans SC5314 = test: CLSI microdilution antifungal susceptibility assay; assay type: cell-based; settings: for EC50 / MIC: Candida albicans; for EC50: 50% fungal inhibitory concentration; for MIC: lowest concentration with no fungal growth, CLSI
Procedure: as §1
(§3) Yeast cells or conidia (for filamentous fungi) were suspended in RPMI 1640 (with 50 mM glucose) medium to a final concentration of 10^4 cfu/ml and distributed in a 96-well microplate to a total volume of 100 μl/well. Albicanol and drimenol were added into the wells and serial dilutions (broad or narrow range) with replicates were made, and wells with or without DMSO served as controls. Plates were incubated without shaking at 37° C. for 24-48 h for yeasts and 30° C. for 4 days for filamentous fungi (Aspergillus and Trichophyton sp). The MIC was defined as the lowest compound concentration at which no growth occurred, as determined visually and by OD600 measurement (or microscopically, inverted). As a positive control, amphotericin B (AMB) (1 μg/ml) was also included in parallel. Cytotoxicity of albicanol and drimenol was determined using human intestinal epithelial cell lines (Int-407) by utilizing cell viability assay kit of Promega.

Cryp. neoformans = test: CLSI microdilution antifungal susceptibility assay; assay type: cell-based; settings: for EC50 / MIC: Cryptococcus neoformans; for EC50: 50% fungal inhibitory concentration; for MIC: lowest concentration with no fungal growth, CLSI
Procedure: as §1, §3

C. albicans Day 185 = test: CLSI microdilution antifungal susceptibility assay; assay type: cell-based; settings: for EC50 / MIC: Candida albicans; for EC50: DAY185, 50% fungal inhibitory concentration; for MIC: DAY185, lowest concentration with no fungal growth, CLSI
Procedure: as §1, §3

T. equinum = test: CLSI microdilution antifungal susceptibility assay; assay type: cell-based; settings: for EC50: 50% fungal inhibitory concentration; for MIC: lowest concentration with no fungal growth, CLSI
Procedure: as §1, §3

[2] = tested on: A. nidulans, C. albicans, C. albicans 95-158 Flu-R, Cryp. neomormans, Candida krusei, and C. glabrata; test: Fungicidal test, viability of treated fungal cells spotted on YPD agar; assay type: cell-based; settings: for effect of amines or YPD medium on bioactivity: presence of amines or YPD medium
various fungi = test: Fungal EC50 and selective index summary; assay type: cell-based; settings: against various fungi; read-out: effective fungal concentration-50 (EC50)
Procedure: as §3

[3] = Cytotoxicity, Promega's cell viability assay kit; assay type: cell-based; settings: human, Int-407 intestinal epithelial cells; summary in description; read-out: cytotoxic inhibitory concentration (IC50) against Int. 407
Procedure: as §3

dermatophyte fungi = test: MIC summary for dermatophyte fungi; assay type: cell-based
Procedure: as §1, §2

[4] = tested on: Caenorhabditis elegans (worm); test: Toxicity to worms in the Candidiasis model; assay type: in vivo; settings: at concentrations that inhibit fungal growth
Procedure: (§4) In order to determine antifungal efficacy and toxicity of albicanol and drimenol simultaneously, Caenorhabditis elegans (worm), a non-mammalian host model of Candidiasis was used. Worms fed with C. albicans yeast cells were incubated in RPMI medium in the presence or absence of drimenol. After 4-5 days worms were scored for survival under an inverted microscope and images were recorded. […] Note dead worms (straight shapes) and clusters of fungal growth in wells without drimenol (−Dri).

C. albicans = test: Caenorhabditis elegans host model of Candidiasis; assay type: in vivo; settings: 50 μg/ml; RPMI medium; scored after 4-5 days
Procedure: as §4

[5] = tested on: barcoded mutants of Saccharomyces cerevisiae; test: Genome-wide fitness (haploinsufficiency) profiling, yeast TAG4 microarray; assay type: cell-based; settings: at 20% growth inhibitory concentration; 20 generations

C=C1CC[C@H]2C(C)(C)CCC[C@]2(C)[C@H]1CO [Albicanol, (+)-albicanol]
MIC [1]: 25 to 50 µg/mL (≈ 112 to 225 µM) | Selective Index (Int-407 IC50/fungal EC50) (C. albicans SC5314): 2 | EC50 (C. albicans SC5314): 25 µg/mL (≈ 112 µM) | MIC (C. albicans SC5314): 50 µg/mL (≈ 225 µM) | Selective Index (Int-407 IC50/fungal EC50) (Cryp. neoformans): 2.27 | EC50 (Cryp. neoformans): 22 µg/mL (≈ 98.9 µM) | MIC (Cryp. neoformans): 40 µg/mL (≈ 180 µM) | Selective Index (Int-407 IC50/fungal EC50) (C. albicans Day 185): 2.27 | EC50 (C. albicans Day 185): 22 µg/mL (≈ 98.9 µM) | MIC (C. albicans Day 185): 40 µg/mL (≈ 180 µM) | Selective Index (Int-407 IC50/fungal EC50) (T. equinum): 6.25 (6.25) | EC50 (T. equinum): 8 µg/mL (≈ 36 µM) | MIC (T. equinum): 15 µg/mL (≈ 67.5 µM) | effect of amines or YPD medium on bioactivity [2]: not affected | EC50 (various fungi): 5 to 30 µg/mL (≈ 22.5 to 135 µM) | CC50 [3]: ~50 µg/mL (≈ 225 µM) | MIC (dermatophyte fungi): 5 to 15 µg/mL (≈ 22.5 to 67.5 µM) | cytotoxicity to worms [4]: less or no cytotoxicity to worms

CC1=CC[C@H]2C(C)(C)CCC[C@]2(C)[C@H]1CO [drimenol, (−)-drimenol]
MIC [1]: 25 to 50 µg/mL (≈ 112 to 225 µM) | Selective Index (Int-407 IC50/fungal EC50) (C. albicans SC5314): 2.27 | EC50 (C. albicans SC5314): 22 µg/mL (≈ 98.9 µM) | MIC (C. albicans SC5314): 40 µg/mL (≈ 180 µM) | Selective Index (Int-407 IC50/fungal EC50) (Cryp. neoformans): 3.12 | EC50 (Cryp. neoformans): 16 µg/mL (≈ 72 µM) | MIC (Cryp. neoformans): 30 µg/mL (≈ 135 µM) | Selective Index (Int-407 IC50/fungal EC50) (C. albicans Day 185): 4.16 | EC50 (C. albicans Day 185): 12 µg/mL (≈ 54 µM) | MIC (C. albicans Day 185): 25 µg/mL (≈ 112 µM) | Selective Index (Int-407 IC50/fungal EC50) (T. equinum): 6.25 (6.25) | EC50 (T. equinum): 8 µg/mL (≈ 36 µM) | MIC (T. equinum): 5 µg/mL (≈ 22.5 µM) | MFC ([2]; all the fungi tested, 100 μg/ml for 48 h, read-out: minimum fungicidal concentration, MFC): 100 µg/mL (≈ 450 µM) | effect of amines or YPD medium on bioactivity [2]: not affected | EC50 (various fungi): 5 to 30 µg/mL (≈ 22.5 to 135 µM) | protection of worms from C. albicans mediated death (C. albicans): prevented C. albicans growth and protected worms from C. albicans mediated death | strains/genes depleted at the log ratio of >1.5 [5]: 34 | CC50 [3]: ~50 µg/mL (≈ 225 µM) | MIC (dermatophyte fungi): 5 to 15 µg/mL (≈ 22.5 to 67.5 µM) | cytotoxicity to worms [4]: less or no cytotoxicity to worms
